This is an account of results in patent US12692223B2, “Phenyl-sulfamoyl-benzoic acid derivatives as ERAP1-modulators” (GREY WOLF THERAPEUTICS LIMITED, priority 2021, dated 2026).

The structures appear in SMILES notation.

For this test, the target named is T1, ERAP1 (Homo sapiens, UniProt Q9NZ08).
T1 construct: Purified ERAP1(37-941)-10His (ERAP1)
T1 sequence (Q9NZ08 37-941): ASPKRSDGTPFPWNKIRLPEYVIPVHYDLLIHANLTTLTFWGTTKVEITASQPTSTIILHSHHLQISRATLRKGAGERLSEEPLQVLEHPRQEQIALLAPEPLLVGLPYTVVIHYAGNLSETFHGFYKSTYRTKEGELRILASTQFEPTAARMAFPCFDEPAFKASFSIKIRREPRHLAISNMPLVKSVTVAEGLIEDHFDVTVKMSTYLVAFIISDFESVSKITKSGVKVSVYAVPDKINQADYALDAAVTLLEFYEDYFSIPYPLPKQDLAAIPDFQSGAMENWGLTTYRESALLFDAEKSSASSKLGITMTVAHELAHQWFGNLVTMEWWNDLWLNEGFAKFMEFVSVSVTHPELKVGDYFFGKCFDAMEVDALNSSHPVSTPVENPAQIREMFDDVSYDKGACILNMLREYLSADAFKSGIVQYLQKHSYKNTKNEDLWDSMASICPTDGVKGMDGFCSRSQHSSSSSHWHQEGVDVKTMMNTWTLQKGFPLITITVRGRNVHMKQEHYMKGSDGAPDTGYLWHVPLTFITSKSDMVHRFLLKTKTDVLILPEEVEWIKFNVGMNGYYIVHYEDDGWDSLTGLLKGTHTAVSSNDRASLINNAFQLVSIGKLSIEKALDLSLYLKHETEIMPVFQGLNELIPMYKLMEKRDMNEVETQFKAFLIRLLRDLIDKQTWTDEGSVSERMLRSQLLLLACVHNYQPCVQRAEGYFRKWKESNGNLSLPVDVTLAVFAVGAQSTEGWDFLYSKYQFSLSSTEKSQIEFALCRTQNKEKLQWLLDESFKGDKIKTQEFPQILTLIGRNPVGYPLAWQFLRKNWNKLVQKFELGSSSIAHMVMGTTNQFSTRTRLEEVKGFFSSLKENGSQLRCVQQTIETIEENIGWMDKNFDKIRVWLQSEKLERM
The test is described as follows: ERAP1 mediated hydrolysis of an amide substrate measured in a biochemical system (10-mer inhibition assay). The following applies: purified ERAP1(37-941)-10His; 10-mer substrate; 23° C. for 1 h; excitation 279 nm, emission 355 nm; read-out: IC50 vs Decapeptide WRVYEKC(Dnp)ALK-acid (where Dnp is Dinitrophenyl maleimide) (10-mer). As for the experimental part: Biological Assay 1: ERAP1 Mediated Hydrolysis of an Amide Substrate Measured in a Biochemical System
• 1× Assay buffer (AB): 25 mM Bis-tris propane, 0.05% w/v • Hydroxypropylmethylcellulose pH 7.75 made with Optima grade water • Decapeptide WRVYEKC(Dnp)ALK-acid (where Dnp is Dinitrophenyl maleimide) (10-mer) • L-Leucine 7-amido-4-methylcoumarin (L-AMC) • Purified ERAP1(37-941)-10His (ERAP1) Assay Procedure:
12.5 μL ERAP1 enzyme in 1×AB was combined with 250 nL test compound in DMSO. 12.5 μL of either 240 μM L-AMC in 1×AB or 100 μM 10-mer in 1×AB was added to the reaction and incubated at 23° C. for 1 h. For detection, plates were read at excitation 365 nm and emission 442 nm (L-AMC) or excitation 279 nm and emission 355 nm (10-mer). Compound IC50 was determined using a 4-parameter equation.
In the case of `N#Cc1cc(NS(=O)(=O)c2cc(C(=O)O)ccc2C2CC2)c(OC2CCC(O)C2)cc1Cl` (racemic) [Example 111, 3-(N-(4-chloro-5-cyano-2-((trans-3-hydroxycyclopentyl)oxy)phenyl)sulfa-moyl)-4-cyclopropylbenzoic acid], the IC50 – broadly, the concentration that gives 50% inhibition – fell in the range of 1 to 5 nM.

As for `N#Cc1cc(NS(=O)(=O)c2cc(C(=O)O)ccc2C2CC2)c(O[C@H]2C[C@@H](O)C2)cc1Cl` [Example 112, 3-(N-(4-chloro-5-cyano-2-(cis-3-hydroxycyclobutoxy)phenyl)sulfamoyl)-4-cyclopropylbenzoic acid], the IC50 was > 5 nM.

Consider `N#Cc1cc(NS(=O)(=O)c2cc(C(=O)O)ccc2C2CC2)c(OC2CCC2O)cc1Cl` (racemic) [Example 118, 3-(N-(4-chloro-5-cyano-2-(trans-2-hydroxycyclobutoxy)phenyl)sulfamoyl)-4-cyclopropylbenzoic acid], for which the half-inhibitory concentration (IC50) was < 1 nM.

Regarding `Cc1oncc1-c1cc(NS(=O)(=O)c2cc(C(=O)O)ccc2C2CC2)c(OC2CCCC2)cc1F` [Example 24, 3-(N-(2-(cyclopentyloxy)-4-fluoro-5-(5-methylisoxazol-4-yl)phenyl)sulfamoyl)-4-cyclopropylbenzoic acid], the concentration for half-maximal inhibition (IC50) is < 1 nM.

In the case of `COC1CCCC1Oc1cc(Cl)c(C#N)cc1NS(=O)(=O)c1cc(C(=O)O)ccc1C1CC1` (single isomer, unassigned) [Example 104, 3-(N-(4-chloro-5-cyano-2-((trans-2-methoxycyclopentyl)-oxy)phenyl)sulfamoyl)-4-cyclopropylbenzoic acid], the IC50 is > 5 nM.

Regarding `CC1CCC1Oc1cc(Cl)c(C#N)cc1NS(=O)(=O)c1cc(C(=O)O)ccc1C1CC1` (single isomer, unassigned) [Example 121, 3-(N-(4-chloro-5-cyano-2-(2-methylcyclobutoxy)phenyl)sulfamoyl)-4-cyclopropylbenzoic acid], the half-inhibitory concentration (IC50) was < 1 nM.

With `COc1ccc(C(=O)O)cc1S(=O)(=O)Nc1cc(C(F)(F)F)ccc1OC1CCCC1` [Example 2, 3-(N-(2-(cyclopentyloxy)^−5-(trifluoromethyl)phenyl)sulfamoyl)-4-methoxybenzoic acid], the half-inhibitory concentration (IC50) is > 5 nM.

`N#Cc1cc(NS(=O)(=O)c2cc(C(=O)O)ccc2C2CC2)c(OC2CCC23CC3)cc1Cl` (stereo not drawn) [Example 56, 3-(N-(4-chloro-5-cyano-2-(spiro[2.3]hexan-4-yloxy)phenyl)sulfamoyl)-4-cyclopropylbenzoic acid]: the half-inhibitory concentration (IC50) is < 1 nM.

On to `C#CC1(Oc2cc(Cl)c(C#N)cc2NS(=O)(=O)c2cc(C(=O)O)ccc2C2CC2)CCC1` [Example 54, 3-(N-(4-chloro-5-cyano-2-(1-ethynylcyclobutoxy)phenyl)sulfamoyl)-4-cyclopropylbenzoic acid], for which the IC50 was in the range of 1 to 5 nM.

Consider `N#Cc1cc(NS(=O)(=O)c2cc(C(=O)O)ccc2C2CC2)c(OC2CCCC23CC3)cc1Cl` (stereo not drawn) [Example 69, 3-(N-(4-chloro-5-cyano-2-(spiro[2.4]heptan-4-yloxy)phenyl)sulfamoyl)-4-cyclopropylbenzoic acid], for which the IC50 was < 1 nM.

Take `N#Cc1cc(NS(=O)(=O)c2cc(C(=O)O)ccc2C2CC2)c(OCC2CCOC2)cc1Cl` (stereo not drawn) [Example 28, 3-(N-(4-chloro-5-cyano-2-((tetrahydrofuran-3-yl)methoxy)phenyl)sulfamoyl)-4-cyclopropylbenzoic acid]: the IC50 was 1 to 5 nM.

As to `N#Cc1cc(NS(=O)(=O)c2cc(C(=O)O)ccc2C2CC2)c(OC2CCC2C2CC2)cc1Cl` (mixture of isomers) [Example 108, 3-(N-(4-chloro-5-cyano-2-(2-cyclopropylcyclobutoxy)-phenyl)sulfamoyl)-4-cyclopropylbenzoic acid], the IC50 is < 1 nM.

As for `CC(Oc1cc(Cl)c(C#N)cc1NS(=O)(=O)c1cc(C(=O)O)ccc1C1CC1)C1CCC1` (stereo not drawn) [Example 42, 3-(N-(4-chloro-5-cyano-2-(1-cyclobutylethoxy)phenyl)sulfamoyl)-4-cyclopropylbenzoic acid], the half-maximal inhibitory concentration (IC50) was < 1 nM.

In the case of `CC1CCC1Oc1cc(Cl)c(C#N)cc1NS(=O)(=O)c1cc(C(=O)O)ccc1C1CC1` (single isomer, unassigned) [Example 122, 3-(N-(4-chloro-5-cyano-2-(2-methylcyclobutoxy)phenyl)sulfamoyl)-4-cyclopropylbenzoic acid], the IC50 was in the range of 1 to 5 nM.

As for `N#Cc1cc(NS(=O)(=O)c2cc(C(=O)O)ccc2C2CC2)c(OC2CCC(F)(F)C2)cc1Cl` (single isomer, unassigned) [Example 140, 3-(N-(4-chloro-5-cyano-2-((3,3-difluorocyclopentyl)oxy)phenyl)sulfa-moyl)-4-cyclopropylbenzoic acid], the concentration for half-maximal inhibition (IC50) was < 1 nM.

In the case of `N#Cc1cc(NS(=O)(=O)c2cc(C(=O)O)ccc2C2CC2)c(OC2CCC2O)cc1Cl` (single isomer, unassigned) [Example 136, 3-(N-(4-chloro-5-cyano-2-(csi-2-hydroxycyclobutoxy)phenyl)sulfamoyl)-4-cyclopropylbenzoic acid], the IC50 is < 1 nM.

As for `C#CC1CCCC1Oc1cc(Cl)c(C#N)cc1NS(=O)(=O)c1cc(C(=O)O)ccc1C1CC1` (single isomer, unassigned) [Example 126, 3-(N-(4-chloro-5-cyano-2-((cis-2-ethynylcyclopentyl)oxy)phenyl)sulfamoyl)-4-cyclopropylbenzoic acid], the IC50 was < 1 nM.

With `N#Cc1cc(NS(=O)(=O)c2cc(C(=O)O)ccc2C2CC2)c(OC2CCC3(CC3)C2)cc1Cl` (stereo not drawn) [Example 64, 3-(N-(4-chloro-5-cyano-2-(spiro[2.4]heptan-5-yloxy)phenyl)sulfamoyl)-4-cyclopropylbenzoic acid], the IC50 was < 1 nM.

As to `N#Cc1cc(NS(=O)(=O)c2cc(C(=O)O)ccc2C2CC2)c(O[C@@H]2CCC[C@H]2O)cc1Cl` [Example 97, 3-(N-(4-chloro-5-cyano-2-(((1R,2R)−2-hydroxycyclopentyl)oxy)phenyl)sulfamoyl)-4-cyclopropylbenzoic acid], the concentration for half-maximal inhibition (IC50) is < 1 nM.

On to `CC1(C)CCC1Oc1cc(Cl)c(C#N)cc1NS(=O)(=O)c1cc(C(=O)O)ccc1C1CC1` (single isomer, unassigned) [Example 93, 3-(N-(4-chloro-5-cyano-2-(2,2-dimethylcyclobutoxy)phenyl)-sulfamoyl)-4-cyclopropylbenzoic acid], for which the IC50 lay within 1 to 5 nM.

With `N#Cc1cc(NS(=O)(=O)c2cc(C(=O)O)ccc2C2CC2)c(OC2CCC2C2CC2)cc1Cl` (single isomer, unassigned) [Example 131, 3-(N-(4-chloro-5-cyano-2-(2-cyclopropylcyclobutoxy)phenyl)sulfamoyl)-4-cyclopropylbenzoic acid], the IC50 was < 1 nM.

Consider `CC1CCCC1Oc1cc(Cl)c(C#N)cc1NS(=O)(=O)c1cc(C(=O)O)ccc1C1CC1` (single isomer, unassigned) [Example 100, 3-(N-(4-chloro-5-cyano-2-((trans-2-methylcyclopentyl)oxy)-phenyl)sulfamoyl)-4-cyclopropylbenzoic acid], for which the half-inhibitory concentration (IC50) was < 1 nM.

In the case of `N#Cc1cc(NS(=O)(=O)c2cc(C(=O)O)ccc2C2CC2)c(OCC2CNC2)cc1Cl` [Example 43, 3-(N-(2-(azetidin-3-ylmethoxy)-4-chloro-5-cyanophenyl)sulfamoyl)-4-cyclopropylbenzoic acid], the IC50 is > 5 nM.

As to `N#Cc1cc(NS(=O)(=O)c2cc(C(=O)O)ccc2C2CC2)c(OCC2CCC2)cc1Cl` [Example 35, 3-(N-(4-chloro-5-cyano-2-(cyclobutylmethoxy)phenyl)sulfamoyl)-4-cyclopropylbenzoic acid], the IC50 is < 1 nM.

For the compound `CO[C@@H]1CCC[C@@H]1Oc1cc(Cl)c(C#N)cc1NS(=O)(=O)c1cc(C(=O)O)ccc1C1CC1` (single isomer, unassigned) [Example 142, 3-(N-(4-chloro-5-cyano-2-((cis-2-methoxycyclopentyl)oxy)phenyl)sulfa-moyl)-4-cyclopropylbenzoic acid], the half-inhibitory concentration (IC50) is < 1 nM.

With `CC1(Oc2cc(Cl)c(C#N)cc2NS(=O)(=O)c2cc(C(=O)O)ccc2C2CC2)CCC1` [Example 62, 3-(N-(4-chloro-5-cyano-2-(1-methylcyclobutoxy)phenyl)sulfamoyl)-4-cyclopropylbenzoic acid], the IC50 was < 1 nM.

Take `CC1CCCC1Oc1cc(Cl)c(C#N)cc1NS(=O)(=O)c1cc(C(=O)O)ccc1C1CC1` (racemic) [Example 105, 3-(N-(4-chloro-5-cyano-2-((cis-2-methylcyclopentyl)oxy)-phenyl)sulfamoyl)-4-cyclopropylbenzoic acid]: the concentration for half-maximal inhibition (IC50) is < 1 nM.

Consider `N#Cc1cc(NS(=O)(=O)c2cc(C(=O)O)ccc2C2CC2)c(OC2CCCC2)cc1F` [Example 11, 3-(N-(5-cyano-2-(cyclopentyloxy)-4-fluorophenyl)sulfamoyl)-4-cyclopropylbenzoic acid], for which the IC50 was < 1 nM.

Consider `N#Cc1cc(NS(=O)(=O)c2cc(C(=O)O)ccc2C2CC2)c(OCC2CC(F)(F)C2)cc1Cl` [Example 31, 3-(N-(4-chloro-5-cyano-2-((3,3-difluorocyclobutyl)methoxy)phenyl)sulfamoyl)-4-cyclopropylbenzoic acid], for which the IC50 lay within 1 to 5 nM.

`CC1(C)CC(Oc2cc(Cl)c(C#N)cc2NS(=O)(=O)c2cc(C(=O)O)ccc2C2CC2)C1` [Example 33, 3-(N-(4-chloro-5-cyano-2-(3,3-dimethylcyclobutoxy)phenyl)sulfamoyl)-4-cyclopropylbenzoic acid]: the half-inhibitory concentration (IC50) was < 1 nM.
